Our source for the IC50, Ratio IC50 and inhibition values is ChEMBL document CHEMBL4725489, “Synthesis, Characterization, and In Silico Studies of Novel Spirooxindole Derivatives as Ecto-5'-Nucleotidase Inhibitors” (ACS Med Chem Lett, 2020).

In assay [1] the target is T1, 5'-nucleotidase (Rattus norvegicus, UniProt P21588).
T1 sequence (P21588 whole entry): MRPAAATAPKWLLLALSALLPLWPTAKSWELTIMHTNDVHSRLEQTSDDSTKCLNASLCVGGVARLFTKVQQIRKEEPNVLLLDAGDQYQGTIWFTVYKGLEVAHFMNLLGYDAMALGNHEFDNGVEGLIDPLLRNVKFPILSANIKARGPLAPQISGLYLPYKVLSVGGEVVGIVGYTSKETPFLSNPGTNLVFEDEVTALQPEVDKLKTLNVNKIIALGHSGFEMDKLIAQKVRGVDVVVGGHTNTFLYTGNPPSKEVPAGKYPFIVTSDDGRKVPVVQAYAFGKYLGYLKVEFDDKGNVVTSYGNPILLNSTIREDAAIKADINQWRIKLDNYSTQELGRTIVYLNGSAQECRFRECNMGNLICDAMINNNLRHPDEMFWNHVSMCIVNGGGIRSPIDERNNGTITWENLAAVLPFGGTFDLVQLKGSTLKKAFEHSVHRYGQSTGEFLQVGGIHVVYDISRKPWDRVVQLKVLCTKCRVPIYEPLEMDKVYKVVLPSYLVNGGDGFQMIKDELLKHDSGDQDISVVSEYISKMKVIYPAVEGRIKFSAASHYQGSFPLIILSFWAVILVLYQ
In words: Inhibition of recombinant rat ecto-5' nucleotidase expressed in COS7 cell membranes assessed as inorganic phosphate release using AMP as substrate uM preincubated for 10 mins followed by substrate addition and measured after 20 mins by malachite green dye based spectrophotometry.

For assay [2], the target named is T2, 5'-nucleotidase (Homo sapiens, UniProt P21589). Nature of the assay: Potency index, ratio of sulfamic acid IC50 to compound IC50 for human ecto-5' nucleotidase expressed in COS7 cell membranes assessed as inorganic phosphate release using AMP as substrate preincubated for 10 mins followed by substrate addition and measured after 20 mins by malachite green dye based ….
Target sequence in this assay (P21589 whole entry, looked up): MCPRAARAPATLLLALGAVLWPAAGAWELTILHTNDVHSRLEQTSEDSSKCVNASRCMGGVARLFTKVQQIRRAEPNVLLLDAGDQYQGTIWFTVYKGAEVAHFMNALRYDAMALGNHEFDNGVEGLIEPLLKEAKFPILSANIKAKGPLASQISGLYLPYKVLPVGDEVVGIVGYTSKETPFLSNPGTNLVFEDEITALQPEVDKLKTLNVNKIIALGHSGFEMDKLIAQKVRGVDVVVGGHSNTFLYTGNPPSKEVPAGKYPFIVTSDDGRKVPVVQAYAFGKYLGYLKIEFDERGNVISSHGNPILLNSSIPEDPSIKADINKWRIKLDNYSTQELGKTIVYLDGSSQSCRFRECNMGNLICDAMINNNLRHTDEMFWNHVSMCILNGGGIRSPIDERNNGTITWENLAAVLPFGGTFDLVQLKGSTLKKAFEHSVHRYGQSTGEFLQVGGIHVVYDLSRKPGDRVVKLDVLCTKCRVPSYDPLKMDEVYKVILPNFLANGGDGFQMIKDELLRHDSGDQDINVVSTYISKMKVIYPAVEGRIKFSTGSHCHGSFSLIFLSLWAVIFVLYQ

The target in assay [3] is T2, 5'-nucleotidase. Nature of the assay: Inhibition of recombinant human ecto-5' nucleotidase expressed in COS7 cell membranes assessed as inorganic phosphate release using AMP as substrate preincubated for 10 mins followed by substrate addition and measured after 20 mins by malachite green dye based spectrophotometry.
Target sequence in this assay (P21589 whole entry): as the sequence (P21589 whole entry, looked up) above
Assay [4] addresses T2, 5'-nucleotidase. Nature of the assay: Noncompetitive inhibition of human ecto-5' nucleotidase assessed as increase in Km with constant Vmax at 0 to 0.6 uM by Lineweaver-Burk plot analysis. The note with it: dose microM 0-0.6.
Target sequence in this assay (P21589 whole entry): as the sequence (P21589 whole entry, looked up) above
In assay [5] the target is T2, 5'-nucleotidase. Nature of the assay: Inhibition of recombinant human ecto-5' nucleotidase expressed in COS7 cell membranes using AMP as substrate preincubated for 10 mins followed by substrate addition and measured after 20 mins by capillary electrophoresis method.
Target sequence in this assay (P21589 whole entry): as the sequence (P21589 whole entry, looked up) above
The target of assay [6] is T2, 5'-nucleotidase. Nature of the assay: Inhibition of recombinant human ecto-5' nucleotidase expressed in COS7 cell membranes assessed as inorganic phosphate release using AMP as substrate at 100 uM preincubated for 10 mins followed by substrate addition and measured after 20 mins by malachite green dye based spectrophotometry relative to control.
Target sequence in this assay (P21589 whole entry): as the sequence (P21589 whole entry, looked up) above
In assay [7] the target is T3, 5'-nucleotidase (Rattus norvegicus) (UniProt P21588).
T3 sequence (whole entry): T1 sequence (P21588 whole entry)
Nature of the assay: Inhibition of recombinant rat ecto-5' nucleotidase expressed in COS7 cell membranes assessed as inorganic phosphate release using AMP as substrate at 100 uM preincubated for 10 mins followed by substrate addition and measured after 20 mins by malachite green dye based spectrophotometry relative to control.

Assay [8] addresses T3, 5'-nucleotidase (Rattus norvegicus). Nature of the assay: Uncompetitive inhibition of rat ecto-5' nucleotidase assessed as increase in Km with constant Vmax at 0 to 0.6 uM by Lineweaver-Burk plot analysis. Particulars: dose microM 0-0.6.
The nature of assay [9]: Selectivity index, ratio of IC50 for recombinant rat ecto-5' nucleotidase expressed in COS7 cell membranes to IC50 for recombinant human ecto-5' nucleotidase expressed in COS7 cell membranes. It counts as cell-based.

The source made the active and inactive calls. No cut-off for these calls is given here.

Turning to `CN1C(=O)C2(C(C#N)=C(N)Nc3n[nH]cc32)c2cc(OC(F)(F)F)ccc21` (centres undefined), the 50% inhibitory concentration (IC50) in assay [1] turned out to be 0.52 µM; in [3], 0.15 µM. The Ratio IC50 in [2] came to 280. Moreover, the inhibition entry in assay [4] was “Active”.

As for `Cc1[nH]nc2c1C1(C(=O)N(C)c3ccc(OC(F)(F)F)cc31)C(C#N)=C(N)N2` (centres undefined), the IC50 is 3.56 µM in assay [1] and 0.18 µM in assay [3].

For the compound `Cc1ccc(-n2nc(C)c3cc(Cl)c(-c4cc(C)ccc4O)nc32)cc1`, the concentration for half-maximal inhibition (IC50) in assay [5] is 0.32 µM.

As for `Cc1[nH]nc2c1C1(C(=O)Nc3ccccc31)C(C#N)=C(N)N2` (centres undefined), the inhibition in [6] turned out to be 33%; in [7] it was 36.5%.

With `Cc1[nH]nc2c1C1(C(=O)N(C)c3ccccc31)C(C#N)=C(N)N2` (centres undefined), the IC50 in assay [1] was found to be 0.19 µM. Moreover, in [6], the inhibition turned out to be 36.6%. In assay [8], the inhibition entry is “Active”.

With `CN1C(=O)C2(C(C#N)=C(N)Nc3n[nH]cc32)c2cc([N+](=O)[O-])ccc21` (centres undefined), the IC50 in assay [1] was 2.12 µM. Moreover, in assay [6], the inhibition turned out to be 38%.

Consider `N#CC1=C(N)Nc2n[nH]cc2C12C(=O)Nc1ccccc12` (centres undefined), for which the results for the inhibition in assay [6] and in assay [7] were 27.6% and 41.7%, respectively.

Consider `Cc1[nH]nc2c1C1(C(=O)N(C)c3ccc([N+](=O)[O-])cc31)C(C#N)=C(N)N2` (centres undefined), for which the inhibition came to 34.3% in [6] and 45.1% in [7].

Consider `Cc1[nH]nc2c1C1(C(=O)N(C)c3ccc(F)cc31)C(C#N)=C(N)N2` (centres undefined), for which the IC50 in assay [1] was 5.01 µM; in assay [3], 0.26 µM.

On to `Cc1[nH]nc2c1C1(C(=O)N(C)c3ccc(Cl)cc31)C(C#N)=C(N)N2` (centres undefined), for which the IC50 in [1] came to 1.56 µM. Further, the inhibition in assay [6] is 33%.

Turning to `CN1C(=O)C2(C(C#N)=C(N)Nc3n[nH]cc32)c2ccccc21` (centres undefined), the IC50 in assay [3] came out at 0.69 µM. Moreover, in assay [7], the inhibition was 41%.

Take `CN1C(=O)C2(C(C#N)=C(N)Nc3n[nH]cc32)c2cc(Cl)ccc21` (centres undefined): the IC50 in assay [1] came out at 0.68 µM. Besides, the inhibition in [6] stood at 39.7%.

As for `CN1C(=O)C2(C(C#N)=C(N)Nc3n[nH]cc32)c2cc(F)ccc21` (centres undefined), the Ratio IC50 in assay [9] was 17.3. The IC50 in assay [1] amounted to 7.99 µM; in [3], 0.46 µM.
